Laboratory results published in patent US20240024317A1, “CANCER TREATMENT USING BOSENTAN IN COMBINATION WITH A CHECKPOINT INHIBITOR” (Materia Therapeutics Inc., priority 2020, published 2024).

What was measured:
Assay type in all cases: in vivo, mice
[1] = tested on: K7M2 wt tumors; test: Tumor growth in osteosarcoma model, ketotifen, doxorubicin, anti-PD-L1; settings: for tumor growth: monotherapy
Experimental: (§1) A fibrosarcoma syngeneic tumor model was generated by subcutaneous implantation of 2.5×10^5 MCA205 cells in 50 μL of serum-free medium into the flank of 6-week old C57BL/6 female mice. A osteosarcoma syngeneic tumor model was generated by implanting K7M2 wt tumor chunks into the fat pad of 6-week old BALB/c female mice.
(§2) Mice bearing sarcoma tumors were pre-treated with 10 mg/kg daily ketotifen followed by three or four doses of doxorubicin and/or an immune checkpoint inhibitor anti-PD-L1 antibody. Mouse monoclonal anti-PD-L1 (B7-H1, clone 10F.9G2, BioXCell) was used. Doxorubicin hydrochloride was prepared as a ready-made solution of 2 mg/ml. Anti-PD-L1 antibody was administered at a final dose of 10 mg/kg and doxorubicin at 5 mg/kg.
(§3) Primary tumors were resected and stored when they reached an average size of 700 mm^3 on day 16 and mice were monitored for re-challenge experiments. Similarly, K7M2 wt tumors were pretreated with daily ketotifen 10 mg/kg or equal volume of diluent (control group) once the average tumor size reached 80 mm^3 (day 18) and continued until completion of neoadjuvant treatment. Doxorubicin and anti-PD-L1 combination treatment started when tumors reached an average size of 150 mm^3 (day 22) and repeated on day 25, 28 and 31. Study ended when tumors reached a mean volume of 550 mm 3 (day 33). Mice were sacrificed and tumors were collected for ex vivo analysis.

[2] = tested on: MCA205 tumors; test: Tumor growth in fibrosarcoma model, ketotifen, doxorubicin, anti-PD-L1; settings: for tumor growth: monotherapy
Experimental: as §1, §2
Mice bearing MCA205 tumors were pretreated with daily ketotifen 10 mg/kg or equal volume of diluent (control group) once the average tumor size reached 40 mm^3, prior to the neoadjuvant treatment. Doxorubicin and anti-PD-L1 combination treatment initiated when tumors reached an average size of 150 mm^3 (day 7) and was administered as i.p. injections every three days (day 7, 10, and 13) for three doses. Daily ketotifen continued until completion of doxorubicin-anti-PD-L1 combination treatment.
as §3

[3] = tested on: MCA205 tumors; test: Contrast-enhanced ultrasound of vascular and functional perfusion, ketotifen; settings: during ketotifen treatment
Experimental: (§4) Vascular perfusion and functional perfusion were measured simultaneously during the course of ketotifen treatment, using contrast-enhanced ultrasound in mice bearing MCA205 and mice bearing K7M2 wt tumors.

[4] = tested on: K7M2 wt tumors; test: as above; settings: during ketotifen treatment
Experimental: as §4

[5] = tested on: MCA205 fibrosarcoma tumors; test: Shear wave elastography of tumor elastic modulus, ketotifen
Description: The mechanotherapeutic potential of ketotifen in reducing matrix stiffness was primarily assessed non-invasively and longitudinally using ultrasound elastography. Assessment of tumor elastic modulus was […] via shear wave elastography using a Philips EPIQ Elite Ultrasound scanner with an eL 18-4 linear array.

[6] = tested on: MCA205 tumors; test: Interstitial fluid pressure (IFP), wick-in-needle technique, ketotifen
Experimental: Interstitial fluid pressure (IFP) was measured in vivo using the “wick-in-needle” technique after mice were anesthetized with i.p. injection of Avertin and prior to tumor excision. Additional information regarding the wick-in-needle technique is described in Dong et al., Involvement of mast cell chymase in burn wound healing in hamsters 2013; 5:643-7 and Shankaran et al. IFNγ and lymphocytes prevent primary tumour development and shape tumour immunogenicity 2001; 410:1107-11, the contents of which are incorporated herein by reference in their entirety.

[7] = anti-PD-L1 (10 mg/kg) and/or doxorubicin (5 mg/kg) combined with 10 mg/kg daily ketotifen

Structure (SMILES)	tumor growth [1]	tumor growth [2]	functional perfusion [3]	vascular perfusion [3]	functional perfusion [4]	vascular perfusion [4]	Young's modulus ([5]; 10 mg/kg ketotifen) [kPa]	tissue stiffness (ultrasound elastography) ([5]; 10 mg/kg ketotifen compared with other doses)	antitumor response [1, 7]	IFP ([6]; 10 mg/kg dose of ketotifen compared with other doses)	IFP ([6]; all doses of ketotifen, daily for 7 days)	antitumor response [2, 7]
COc1cccc2c1C(=O)c1c(O)c3c(c(O)c1C2=O)C[C@@](O)(C(=O)CO)C[C@@H]3O[C@H]1C[C@H](N)[C@H](O)[C@H](C)O1 [doxorubicin]	Neither anti-PD-L1 nor doxorubicin monotherapies significantly affected tumor growth	Neither anti-PD-L1 nor doxorubicin monotherapies significantly affected tumor growth	–	–	–	–	–	–	–	–	–	–
CN1CCC(=C2c3ccccc3CC(=O)c3sccc32)CC1 [ketotifen]	no antitumor effect	no antitumor effect	significant increase	significant increase	significant increase	significant increase	20	reduced tissue stiffness the most	induced a significant antitumor response	greatest effect	reduced the IFP	induced a significant antitumor response
